The text below walks through data of article PMC9692552, “Activity and Synergy of Cu-ATCUN Antimicrobial Peptides” (International Journal of Molecular Sciences, 2022).

The test system of experiment [1] is E. coli 25922. The experiment can be described thus: FIC of peptide pairs (two-way dilution, 96-well plate). Type of experiment: cell-based, Escherichia coli. The note with it: single peptide on the FIC plate. The procedure:
(§1) Determining MIC values informed decisions on testing peptides in combination. Fractional inhibitory concentrations determine the ability of test articles to act in concert against a pathogen. FIC determination is experimentally similar to MIC determination, except one test article is diluted down the wells and another is diluted across the wells of the 96-well plate in order to test the synergism of two peptides. […] Synergy is defined as an FIC of less than or equal to 0.5, meaning there is a four-fold reduction in the concentration of each peptide required for inhibition. Any number above 4 indicates a deleterious interaction that reduces the effectiveness of each peptide, and a value between 0.5 and 1 can be considered additive (Equation (2)).
(§2) Fractional inhibitory concentrations (FICs) were determined in a manner similar to MIC determinations but with serial dilutions of two peptides running both horizontally and vertically across the 96-well plate. Determination of the FIC can be seen in Equation (2), where FIC is the fractional inhibitory concentration, [A] is the concentration of substrate A at MIC in combination, [B] is the concentration of substrate B at MIC in combination, and MICA and MICB are the MIC of substrate A and substrate B, respectively. FIC = fractional inhibitory concentration, [A] = concentration of A at MIC in combination, [B] = concentration of B at MIC in combination, MICA = minimum inhibitory concentration of A, and MICB = minimum inhibitory concentration of B. When FIC ≤ 0.5 the results are synergistic. If FIC > 4, the results are antagonistic, and when FIC > 0.5, the results are indifferent or additive. (2) FIC=[A]/MICA+ [B]/MICB

In experiment [2] the test system is E. coli 25922. The note with it: single peptide on the FIC plate, cited from earlier work. The source says: Figure 6 Summary of peptide interactions in E. coli 25922 from data presented in Results and Supplemental Material. Synergistic (or non-synergistic) interactions for CP10A, TempL, OV3-00 and OV3-01 with other peptides are grouped as shown. Parental and ATCUN derivatives are outlined in the same shape with the average FIC value shown in parentheses. TEXT PRINTED IN THE PICTURE: Sub5: E. coli 25922, CP10A, Synergistic: (0.4); E. coli 25922, TempL, Additive/Indifferent: (1) | Sub5-01: E. coli 25922, CP10A, Synergistic: (0.42); E. coli 25922, TempL, Additive/Indifferent: (0.78) | Mag2-01: E. coli ... || page 3: For Tables S3-S10: FIC Index = [A]/[MICA] + [B]/[MICB], where [A] and [B] are the concentrations of respective peptides at which no growth was observed when dosed in combination, and [MICA] and [MICB] are the concentrations where no growth was observed when dosed separately. The data from each experiment repeated in duplicate or triplicate is shown and bolded data in the final row is the average FIC value. Error is reported as the standard deviation of the mean. Table S3. FIC values for Interactions of CP10A and TempL in E. coli 25922. * Previously reported data from reference for ... || page 4: Table S4. FIC values for the non-ATCUN containing parental peptides in E. coli 25922. A CP10A CP10A CP10A TempL TempL TempL TempL B Sub5 13 Mag2 OV3-00 Sub5 TRP Mag2 OV3-00 [A] 2/4/4 2/2/1 2/2/0.5 2/2/2 1/1/1 0.25/1/2 2/2/2 MICA 16/16/16 4/4/2 4/4/4 4/4/4 2/4/2 4/4/4 16/16/16 [B] 1/0.5/0.25 2/2/2 0.5/1/1 4/4/4 4/4/4 4/2/0.125 4/1/1 MICB 4/2/4 4/4/4 2/2/2 8/8/8 8/8/8 8/8/8 8/2/2 FIC 0.375/0.328/0.5 1/1/1 0.75/1/0.625 1/1/1 1/0.75/1 0.56/0.5/0.52 0.625/0.625/0.625 FICAvg 0.40 ± 0.04 1 0.78 ± 0.2 1 0.9 ± 0.14 0.53 ± 0.03 0.625 Table S5. FIC Values for ATCUN peptide derivatives in MRSA 433 ...

Experiment [3] has as its system A. baumannii BAA747. On the set-up: method as in ref 13 of the supplement ([11] in main text). Particulars: Acinetobacter baumannii, single peptide on the FIC plate, ref 13 of the supplement ([11] in main text), cited from earlier work.
For experiment [4], the system named is K. pneumoniae 700603. Particulars: taken from earlier work, ref [7]; cited from earlier work. An excerpt:
(§3) Table 2 MIC Values (µM) for SMAP-29 Derivatives. * Previously reported data from reference r comparison. | column: OV3 *; Cu-1 *; Cu-2 *; Cu-3 *; Cu-4 * || Table 4 MIC values for antimicrobial peptides utilized in this study. MIC values for a variety of the presented peptides have been previously determined in alternative conditions; values here are the result of experimental efforts to determine MICs under the conditions utilized for further study of FIC potential, with the exception of Sub5 and Sub5-01, previously characterized in our laboratory, w | column: Sub5; Sub5-01

For experiment [5], the system named is E. faecium 700221 (VRE). The note with it: taken from earlier work, ref [7]; cited from earlier work.
Excerpt: as §3

Experiment [6] concerns S. aureus 43300 (MRSA). Particulars: taken from earlier work, ref [7]; cited from earlier work.
Excerpt: as §3

Experiment [7] relates to P. aeruginosa 27583. Particulars: P. aeruginosa 27583; taken from earlier work; ref [7]; cited from earlier work.
Excerpt: as §3

In experiment [8] the test system is A. baumannii BAA747. Particulars: taken from earlier work, ref [7]; cited from earlier work.
Excerpt: as §3

Experiment [9] deals with E. coli 25922. The note with it: taken from earlier work, ref [7]; cited from earlier work.
Excerpt: as §3

For experiment [10], the system named is MRSA 43300. On the set-up: method as in ref [13] of the supplement ([11] in main text). Particulars: single peptide on the FIC plate, cited from earlier work.
The subject of experiment [11] is MRSA 43300. The experiment can be described thus: FIC of peptide pairs (two-way dilution, 96-well plate). The experiment is classed as cell-based, S. aureus. Particulars: single peptide on the FIC plate. The procedure: as §1, §2
Experiment [12] deals with K. pneumoniae 700603. Type of experiment: cell-based. The note with it: 700603. The procedure:
(§4) The minimum inhibitory concentration of a peptide is the concentration at which no observable bacterial growth can be determined by visual inspection. MIC values are useful for determining the potential of a test article as a therapeutic, as well as in comparison to other test articles. A variety of antimicrobial peptides were tested for activity against an array of clinically relevant bacterial strains. The sequences of SMAP-29 derivatives and their key features can be seen in Table 1, with peptides being named in reference to how they were originally published. Peptides OV3-00 and OV3-01 were utilized in this study. Because the template (or parental) peptide, SMAP-29, derived from sheep leukocytes, is hemolytic to human red blood cells, efforts were made to enhance the therapeutic index of the peptide leading to the creation of OV and OV3 [14, 19]. Various derivatives were made and OV3 came to represent two distinct peptides in the literature: the peptide labeled OV3 and a peptide with an additional c-terminal YG, herein labeled OV3-00. Previous work in our laboratory utilized OV3 for the design and synthesis of ATCUN domain peptides, but it lacks a tryptophan or tyrosine residue that allows for more ready quantification of the peptide concentration by the extinction coefficient, leading to a less accurate, more difficult, concentration analysis by mass spectrometry. To ease quantification and facilitate studies on the OV3 series in our laboratory, and compare the effect of the added YG, additional work was pursued using the longer OV3-00 and OV3-01 derivatives.
(§5) Minimum inhibitory concentrations (MICs) of test molecules were established by broth dilution assays. Mid-log phase bacterial cultures of a variety of clinically important organisms were diluted and incubated with a serial dilution of each peptide, starting at 128 µM. The concentration of peptide at which no visible growth occurred was marked as the MIC. Bacterial strains were incubated in Mueller–Hinton Broth (MHB) at 37 degrees Celsius until the OD600 reached between 0.8 and 1. The resulting culture was subsequently diluted 100× into 96-well plates with the test articles. Positive and negative controls containing only MHB incubated with bacteria and MHB, respectively, were also included on the plate. Each 96-well plate was incubated for 16–20 h, and the MIC was determined by visual inspection. To determine the colony-forming units (CFUs) present in each assay, 100 µL of the 100× diluted culture was further diluted by 1000× and plated on agar plates and determined by use of Equation (1). The colonies were counted to ensure that the CFU value was between 10^4 and 10^5. CFU/mL = (mean # of colonies/0.1 mL) (1000 (dilution factor))(1)

Experiment [13] relates to E. faecium 700221 (VRE). The experiment is classed as cell-based. Particulars: 700221 (VRE). The procedure:
as §4, §5

For experiment [14], the system named is S. aureus 43300 (MRSA). The experiment is classed as cell-based. Particulars: 43300. The procedure:
as §4, §5

Experiment [15] relates to P. aeruginosa 27583. The experiment is classed as cell-based. The note with it: 27583. The procedure: as §4, §5
The test system of experiment [16] is A. baumannii BAA747. The experiment is classed as cell-based, Acinetobacter baumannii. Particulars: BAA747. The procedure:
as §4, §5

For experiment [17], the system named is E. coli 25922. Type of experiment: cell-based, Escherichia coli. Particulars: 25922. The procedure:
as §4, §5

[18] abbreviates: initial screen, one value given.
[19] abbreviates: replicate 1, ref [13] of the supplement ([11] in main text).
Setting [20] is: replicate 2, ref [13] of the supplement ([11] in main text).
Where [21] appears, read: replicate 3, ref [13] of the supplement ([11] in main text).

Where “and” joins values, the source holds several entries; their conditions need not be identical. Equal entries are not always repeated. Where two headings read alike, the source gives them in different places. Ends that are not written are not given here.

For “GGHGVRRFPWWWPFLRRGGC-NH2 [TRP-03, ATCUN derivative of tritrpticin]”, the “MICA/MICB, concentration with no growth when dosed separately” value (shortened to “MICA/MICB, concentration with no growth”) in the experiment on E. coli 25922 [1] (setting [18]) amounted to 16 µM.

As to “GGHRRWKIVVIRWRR-NH2 [Sub5-01, ATCUN derivative of Sub5, previously characterized by the authors]”, the “MICA/MICB, concentration with no growth” value in the experiment with E. coli 25922 [2] (setting [19]) is 4 µM; with E. coli 25922 [2] (setting [20]), 4 µM; in the experiment with E. coli 25922 [2] (setting [21]), 4 µM; with A. baumannii BAA747 [3] (replicate 1), 1 µM; with A. baumannii BAA747 [3] (replicate 2), 2 µM; in the experiment on A. baumannii BAA747 [3] (replicate 3), 1 µM. Also, the “MICA/MICB, concentration with no growth” value was 16 µM in the experiment with MRSA 43300 [10] (setting [19]); 16 µM in the experiment with MRSA 43300 [10] (setting [20]); 16 µM in the experiment on MRSA 43300 [10] (setting [21]); 4 µM in the experiment with MRSA 43300 [11] (replicate 1); 4 µM in the experiment with MRSA 43300 [11] (replicate 2); 4 µM in the experiment on MRSA 43300 [11] (replicate 3). Besides, the “MICA/MICB, concentration with no growth” value with E. coli 25922 [1] (replicate 1), in the experiment on E. coli 25922 [1] (replicate 2) and in the experiment with E. coli 25922 [1] (replicate 3) was 8 µM throughout. Moreover, the MIC with K. pneumoniae 700603 [4] is 2 µM; in the experiment with E. faecium 700221 (VRE) [5], 0.4 µM; with S. aureus 43300 (MRSA) [6], 1 µM; in the experiment on P. aeruginosa 27583 [7] it was 2 µM; in the experiment with A. baumannii BAA747 [8], 1 µM; in the experiment with E. coli 25922 [9] it was 2.7 µM.

As for GILAWKWAWWAWRR-NH2 [CP10A], the MIC with K. pneumoniae 700603 [12] turned out to be 32 µM; in the experiment with E. faecium 700221 (VRE) [13], 8 µM; in the experiment on S. aureus 43300 (MRSA) [14] it was 4 µM; in the experiment on P. aeruginosa 27583 [15], 64 µM; in the experiment with A. baumannii BAA747 [16], 8 µM; in the experiment with E. coli 25922 [17] it was 16 µM.

Consider GGHIRRIIRKIIHIIKKYG-NH2 [OV3-01], for which the minimal inhibitory concentration (MIC) against K. pneumoniae 700603 [12] is reported as 16 µM; against E. faecium 700221 (VRE) [13], 4 µM; in the experiment on S. aureus 43300 (MRSA) [14], 16 µM; in the experiment on P. aeruginosa 27583 [15], 16 µM; against A. baumannii BAA747 [16], 8 µM; in the experiment with E. coli 25922 [17], 4 µM.

Consider “GGHGVRRFPWWWPFLRR-NH2 [TRP-02, ATCUN derivative of tritrpticin]”, for which the “MICA/MICB, concentration with no growth” value in the experiment with E. coli 25922 [1] (setting [18]) is 8 µM and 16 µM.

As for GGHVRRFPWWWPFLRRGGC-NH2 [TRP-01], the MIC is listed as 32 µM with K. pneumoniae 700603 [12]; 8 µM with E. faecium 700221 (VRE) [13]; 32 µM in the experiment on S. aureus 43300 (MRSA) [14]; 64 µM with P. aeruginosa 27583 [15]; 16 µM in the experiment on A. baumannii BAA747 [16]; 32 µM against E. coli 25922 [17].

As to GGHYLGALLGPLMNLLQ-NH2 [PFQα-01], the MIC against K. pneumoniae 700603 [12] is given as above 128 µM; with E. faecium 700221 (VRE) [13] it was above 128 µM; with S. aureus 43300 (MRSA) [14], 16 µM; against P. aeruginosa 27583 [15] it was above 128 µM; in the experiment on A. baumannii BAA747 [16], 128 µM; against E. coli 25922 [17], above 128 µM.

By MIC is commonly meant the smallest concentration in the dilution series that meets the test's criterion for growth inhibition.
